29 compounds from US20150266857A1, “NOVEL 3-INDOL SUBSTITUTED DERIVATIVES, PHARMACEUTICAL COMPOSITIONS AND METHODS FOR USE” (iTeos Therapeutics, priority 2014, published 2015) can be followed below.

For assay [1], the target named is T1, murine mastocytoma P815 cells overexpressing hTDO2 (Homo sapiens, UniProt P48775).
T1 construct: expressed in transfected cells; host or cells: murine mastocytoma P815 cells
As to the kind of experiment: Cellular assay for TDO2 activity, hTDO2-overexpressing P815 cells. It counts as cell-based. The following applies: P815 cells overexpressing hTDO2, overnight incubation, kynurenine in supernatant. Here is the method: The assay (adapted from Pilotte L et al., Proc Natl Acad Sci USA, 2012, 109(7), 2497-502) was performed in 96-well flat bottom plates seeded with murine mastocytoma P815 cells overexpressing hTDO2 (prepared as described in Pilotte et al., PNAS, 2012, 109(7), 2497-2502), at a concentration of 5×10^4 cells/well in a final volume of 200 μL. To determine TDO or IDO activity, the cells were incubated overnight at 37° C. at 5% CO2 in IMDM (Invitrogen) supplemented with 2% FBS and 2% penicillin/streptomycin in the presence of the compounds of the present invention, at different concentrations. The cells may be obtained from the American Type Cuylture Collecion [ATCC® TIB-64™ or commercially, e.g., from Sigma-Aldrich or Life Technologies.]
The plates were then centrifuged 5 min at 1000 rpm, and 100 μL of the supernatant were collected in a conical plate, 30 uL of TCA 30% were added and a further centrifugated at 3000×g for 10 minutes. 100 μL of the supernatant were collected in a flat bottomed plate and 100 μL of 2% (w/v) 4-(dimethylamino)-benzaldehyde in acetic acid and incubated for 5 min at room temperature. Kynurenine concentrations were determined by measuring the absorbance at 480 nm. A standard curve was made with pure kynurenine. The TDO activity was measured as described above using ten serial concentrations of the compounds of the present invention. Data were fitted using the Prism™ software (GraphPad Software, Inc.) using standard parameters.

Assay [2] has as its target T2, human glioblastoma A172 cells, naturally expressing hTDO2 (Homo sapiens, UniProt P48775).
T2 construct: human glioblastoma A172 cells, naturally expressing hTDO2; endogenous in cells; host or cells: human glioblastoma A172 cells (ATCC CRL-1620)
Kind of assay: Cellular assay for TDO2 activity, A172 cells. The format is cell-based. The following applies: overnight incubation, kynurenine in supernatant. The method, boiled down: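 A172 human glioblastoma cells naturally expressing TDO2, seeded at 1.25×10^4 cells/well, were incubated overnight at 37 °C in IMDM with 2% FBS and ten serial compound concentrations. Supernatant kynurenine, after TCA precipitation and Ehrlich's reagent, was read at 480 nm against a kynurenine standard curve; data curve-fitted.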

The target of assay [3] is T3, human recombinant TDO2 enzyme (Homo sapiens, UniProt P48775).
T3 construct: made in house
Kind of assay: Assay for TDO2 enzymatic activity determination. It counts as biochemical. The settings on record: human recombinant TDO2, L-Trp 1 mM, kynurenine absorbance at 480 nm. The procedure:
To measure the TDO2 activity, the procedure described in Dolusic et al. J. Med. Chem.; 2011, 54, […] was adapted: the reaction mixture contained (final concentrations) potassium phosphate buffer (50 mM, pH 7.5), ascorbic acid (0.25 M), methylene blue (0.125 μM), catalase (40 units/mL, from bovine liver, Sigma), and human recombinant TDO2 enzyme (prepared as described in Dolusic et al. J. Med. Chem.; 2011, 54, 5320-5334; 0.9 μg) without or with the compounds of the present invention at the indicated concentrations (total volume 112.5 μL). The reaction was initiated by the addition of 37.5 μL of L-Trp (final concentration 1 mM) at room temperature. The reaction was conducted at room temperature during one hour and stopped by the addition of 30 μL of 30% (w/v) trichloroacetic acid.
To convert N-formylkynurenine into kynurenine, the reaction mixture was incubated at 65° C. for 30 min. Then 150 μL of the reaction mixture was mixed with 120 μL of 2.5% (w/v) 4-(dimethylamino)-benzaldehyde in acetic acid and incubated for 5 min at room temperature. Kynurenine concentrations were determined by measuring the absorbance at 480 nm. A standard curve was made with pure kynurenine. The TDO activity was measured as described above using ten serial concentrations of the compounds of the present invention. Data were fitted using the Prism™ software (GraphPad Software, Inc.) using standard parameters.

The structures appear in SMILES notation.

The IC50 is the midpoint of a concentration-inhibition curve.

T1 sequence (P48775 whole entry): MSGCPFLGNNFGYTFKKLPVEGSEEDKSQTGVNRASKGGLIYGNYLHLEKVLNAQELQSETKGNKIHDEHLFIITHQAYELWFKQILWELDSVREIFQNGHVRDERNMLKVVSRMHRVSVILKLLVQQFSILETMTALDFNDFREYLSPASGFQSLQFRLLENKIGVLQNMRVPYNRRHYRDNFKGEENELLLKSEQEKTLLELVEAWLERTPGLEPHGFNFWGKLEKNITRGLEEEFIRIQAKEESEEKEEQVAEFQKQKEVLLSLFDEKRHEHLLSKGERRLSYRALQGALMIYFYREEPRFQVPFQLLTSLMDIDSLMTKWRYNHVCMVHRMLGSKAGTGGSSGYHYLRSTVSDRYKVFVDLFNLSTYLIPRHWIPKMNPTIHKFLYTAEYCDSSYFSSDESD
T3 sequence (P48775 whole entry): as above
T2 sequence (P48775 whole entry): as above

As to `NCc1nc2ccc(-c3c[nH]c4cc(F)ccc34)cc2[nH]1` [Compound 27, (6-(6-fluoro-1H-indol-3-yl)-1H-benzo[d]imidazol-2-yl)methanamine], in assay [1], 678 nM corresponded to half-maximal inhibition (IC50). In turn, `CN(C)Cc1nc2ccc(-c3c[nH]c4cc(F)ccc34)cc2[nH]1` [Compound 28, 1-(6-(6-fluoro-1H-indol-3-yl)-1H-benzo[d]imidazol-2-yl)-N,N-dimethylmethanamine] displayed an IC50 in assay [1] of 1450 nM.

In the case of `CC(=O)NCc1nc2ccc(-c3c[nH]c4cc(F)ccc34)cc2[nH]1` [Compound 30, N-((6-(6-fluoro-1H-indol-3-yl)-1H-benzo[d]imidazol-2-yl)methyl)acetamide], the IC50 in assay [1] was found to be 896 nM.

As for `NCC(=O)NCc1nc2ccc(-c3c[nH]c4cc(F)ccc34)cc2[nH]1` [Compound 31, 2-amino-N-((6-(6-fluoro-1H-indol-3-yl)-1H-benzo[d]imidazol-2-yl)methyl)acetamide], in assay [1], the half-maximal inhibitory concentration (IC50) stood at 2300 nM.

With `CS(=O)(=O)NCc1nc2ccc(-c3c[nH]c4cc(F)ccc34)cc2[nH]1` [Compound 32, N-((6-(6-fluoro-1H-indol-3-yl)-1H-benzo[d]imidazol-2-yl)methyl)methanesulfonamide], half-maximal inhibition in assay [1] (IC50) required 460 nM. With `CN1CCN(Cc2nc3ccc(-c4c[nH]c5cc(F)ccc45)cc3[nH]2)CC1` [Compound 33, 6-(6-fluoro-1H-indol-3-yl)-2-((4-methylpiperazin-1-yl)methyl)-1H-benzo[d]imidazole], the midpoint of inhibition in assay [1], the IC50, lay at 635 nM. Turning to `CS(=O)(=O)N1CCN(Cc2nc3cc(-c4c[nH]c5cc(F)ccc45)ccc3[nH]2)CC1` [Compound 34, 5-(6-fluoro-1H-indol-3-yl)-2-((4-(methylsulfonyl)piperazin-1-yl)methyl)-1H-benzo[d]imidazole], in assay [1], the IC50 was determined as 863 nM. `NCCc1nc2ccc(-c3c[nH]c4cc(F)ccc34)cc2[nH]1` [Compound 35, 2-(6-(6-fluoro-1H-indol-3-yl)-1H-benzo[d]imidazol-2-yl)ethanamine] yielded an IC50 in assay [1] of 689 nM. Compound `CC(=O)NCCc1nc2ccc(-c3c[nH]c4cc(F)ccc34)cc2[nH]1` [Compound 36, N-(2-(6-(6-fluoro-1H-indol-3-yl)-1H-benzo[d]imidazol-2-yl)ethyl)acetamide] displayed an IC50 in assay [1] of 1130 nM. Still for that read-out and setting: to `CS(=O)(=O)NCCc1nc2ccc(-c3c[nH]c4cc(F)ccc34)cc2[nH]1` [Compound 37, N-(2-(6-(6-fluoro-1H-indol-3-yl)-1H-benzo[d]imidazol-2-yl)ethyl)methanesulfonamide] belongs 1530 nM.

For the compound `Fc1ccc2c(-c3ccc4nc(C5CCNCC5)[nH]c4c3)c[nH]c2c1` [Compound 39, 6-(6-fluoro-1H-indol-3-yl)-2-(piperidin-4-yl)-1H-benzo[d]imidazole], the IC50 in assay [1] is 2860 nM. Compound `CS(=O)(=O)N1CCC(c2nc3ccc(-c4c[nH]c5cc(F)ccc45)cc3[nH]2)CC1` [Compound 40, 6-(6-fluoro-1H-indol-3-yl)-2-(1-(methylsulfonyl)piperidin-4-yl)-1H-benzo[d]imidazole] yielded an IC50 in assay [1] of 750 nM.

`CNCc1nc2cc(-c3c[nH]c4cc(F)ccc34)ccc2[nH]1` [Compound 44, 1-(5-(6-fluoro-1H-indol-3-yl)-1H-benzo[d]imidazol-2-yl)-N-methylmethanamine] registered a half-maximal inhibitory concentration (IC50) in assay [1] of 345 nM. Turning to `Fc1ccc2c(-c3ccc4[nH]c(CN5CCOCC5)nc4c3)c[nH]c2c1` [Compound 45, 4-((5-(6-fluoro-1H-indol-3-yl)-1H-benzo[d]imidazol-2-yl)methyl)morpholine], the concentration for half-maximal inhibition (IC50) in assay [1] worked out at 595 nM. For the compound `Cc1nc2cc(-c3c[nH]c4cc(F)ccc34)ccc2o1` [Compound 48, 5-(6-fluoro-1H-indol-3-yl)-2-methylbenzo[d]oxazole], the IC50 in assay [1] was 118 nM.

`Fc1ccc2c(-c3ccc4ncoc4c3)c[nH]c2c1` [Compound 53, 6-(6-fluoro-1H-indol-3-yl)benzo[d]oxazole] registered a 50% inhibitory concentration (IC50) in assay [1] of 79 nM. On the same count and under the same terms, to `Cc1nc2ccc(-c3c[nH]c4cc(F)ccc34)cc2o1` [Compound 54, 6-(6-fluoro-1H-indol-3-yl)-2-methylbenzo[d]oxazole] belongs 109 nM; to `Fc1ccc2c(-c3ccc4nc(CN5CCNCC5)[nH]c4c3)c[nH]c2c1` [Compound 59, 6-(6-fluoro-1H-indol-3-yl)-2-(piperazin-1-ylmethyl)-1H-benzo[d]imidazole], 622 nM.

Take `CN(C)CCS(=O)(=O)NCc1nc2ccc(-c3c[nH]c4cc(F)ccc34)cc2o1` [Compound 100, 2-(dimethylamino)-N-((6-(6-fluoro-1H-indol-3-yl)benzo[d]oxazol-2-yl)methyl)ethanesulfonamide]: the IC50 turned out to be 345 nM in assay [2] and 1460 nM in assay [3]. In the case of `CS(=O)(=O)CCc1nc2ccc(-c3c[nH]c4cc(F)ccc34)cc2o1` [Compound 101, 6-(6-fluoro-1H-indol-3-yl)-2-(2-(methylsulfonyl)ethyl)benzo[d]oxazole], the IC50 in assay [2] was 153 nM; in assay [3], 1380 nM. The matching figures for `NC(=O)NCc1nc2ccc(-c3c[nH]c4cc(F)ccc34)cc2o1` [Compound 102, 1-((6-(6-fluoro-1H-indol-3-yl)benzo[d]oxazol-2-yl)methyl)urea]: 261 nM and 835 nM. Turning to `CN1CCN(CCc2nc3ccc(-c4c[nH]c5cc(F)ccc45)cc3o2)CC1` [Compound 105, 6-(6-fluoro-1H-indol-3-yl)-2-(2-(4-methylpiperazin-1-yl)ethyl)benzo[d]oxazole], the results for the half-maximal inhibitory concentration (IC50) in assay [2] and in assay [3] were 223 nM and 913 nM, respectively. The corresponding values for `O=S(=O)(CCO)NCc1nc2ccc(-c3c[nH]c4cc(F)ccc34)cc2o1` [Compound 106, N-((6-(6-fluoro-1H-indol-3-yl)benzo[d]oxazol-2-yl)methyl)-2-hydroxyethanesulfonamide] are 326 nM and 814 nM. As for `O=S(=O)(CCN1CCOCC1)NCc1nc2ccc(-c3c[nH]c4cc(F)ccc34)cc2o1` [Compound 107, N-((6-(6-fluoro-1H-indol-3-yl)benzo[d]oxazol-2-yl)methyl)-2-morpholinoethanesulfonamide], the IC50 in assay [2] amounted to 677 nM; in assay [3], 2800 nM. Consider `CN1CCN(CCS(=O)(=O)NCc2nc3ccc(-c4c[nH]c5cc(F)ccc45)cc3o2)CC1` [Compound 122, N-((6-(6-fluoro-1H-indol-3-yl)benzo[d]oxazol-2-yl)methyl)-2-(4-methylpiperazin-1-yl)ethanesulfonamide], for which the half-maximal inhibitory concentration (IC50) in assay [2] is 344 nM; in assay [3] it was 2090 nM. As for `O=S(=O)(CCN1CCNCC1)NCc1nc2ccc(-c3c[nH]c4cc(F)ccc34)cc2o1` [Compound 123, N-((6-(6-fluoro-1H-indol-3-yl)benzo[d]oxazol-2-yl)methyl)-2-(piperazin-1-yl)ethanesulfonamide], the IC50 came to 498 nM in assay [2] and 1360 nM in assay [3].

As to `O=S(=O)(CCN1CCCC1)NCc1nc2ccc(-c3c[nH]c4cc(F)ccc34)cc2o1` [Compound 124, N-((6-(6-fluoro-1H-indol-3-yl)benzo[d]oxazol-2-yl)methyl)-2-(pyrrolidin-1-yl)ethanesulfonamide], the results for the half-maximal inhibitory concentration (IC50) in assay [2] and in assay [3] were 334 nM and 1210 nM, respectively. Turning to `CS(=O)(=O)NCc1nc2ccc(-c3c[nH]c4ccc(F)cc34)cc2o1` [Compound 128, N-((6-(5-fluoro-1H-indol-3-yl)benzo[d]oxazol-2-yl)methyl)methanesulfonamide], the IC50 in assay [2] was 540 nM; in assay [3] it was 6070 nM. For `O=C1NS(=O)(=O)c2ccc(-c3c[nH]c4cc(F)ccc34)cc21` [Compound 130, 5-(6-fluoro-1H-indol-3-yl)benzo[d]isothiazol-3(2H)-one 1,1-dioxide], the concentration for half-maximal inhibition (IC50) in assay [2] worked out at 83 nM; in assay [3], 2420 nM.
